Results on one compound are retold here after US11952328B2, “Selective ship inhibitors for treating disease” (THE RESEARCH FOUNDATION FOR THE STATE UNIVERSITY OF NEW YORK, priority 2018, dated 2024).

In assay [1] the test system is RMA cells. The experiment in a line: Apoptosis (AnnexinV), Caspase 8 and CD95/Fas in RMA cells in culture. The format is cell-based, mice. The source says: FIGS. 5A-5I show the effects of SHIP1 inhibitor as a chemotherapeutic. […] FIG. 5D and FIG. 5E show the representative histograms and box-and-whisker plots of FasL expression by NK cells from C56BL/6 (p=0.0002; Unpaired t test with Welch's correction) or RAG1−/− (p<0.0001; Mann-Whitney U test) tumor challenged, SHIP inhibitor or vehicle treated hosts. […] (NK cells p=0.0192; Unpaired t test with Welch's correction. T cells p=0.0659; Mann-Whitney U test). Additionally, FIGS. 5A-5G show the analysis by flow cytometry on day 3 after hosts receive SHIP inhibitor or vehicle for two consecutive days. NK cells are defined as NK1.1+CD3ε−. The graphs are representative of at least two independent experiments with at least four SHIP inhibitor and vehicle treated mice. […] Viability is expressed as frequency at a given concentration expressed as a percentage of solvent only treated cells. The kill curve summarizes pooled data from three independent experiments using six replicate wells/concentration with mean ±SEM indicated (n=18 per group. One-way ANOVA with Dunnett's multiple comparisons. 0 pM vs. 20 pM Adjusted p value =0.0001. 0 pM vs. 15 pM Adjusted p value =0.0001. 0 pM vs. 10 pM Adjusted p value =0.0001. 0 pM vs. 7.5 pM Adjusted p value =0.0001. 0 pM vs. 5 pM Adjusted p value =0.0001).
NK cells are able to directly kill target cells through several different mechanisms including both production of perforin and granzymes and induction of apoptosis via Fas-FasL signaling (Arase, H. et al., Fas-mediated cytotoxicity by freshly isolated natural killer cells. J Exp Med. (1995); 181: 1235-1238; Zamai, L. et al., Natural killer (NK) cell-mediated cytotoxicity: differential use of TRAIL and Fas ligand by immature and mature primary human NK cells. J Exp Med. (1998); 188: 2375-2380). […] SHIP1 was recently shown to be recruited to CD95/Fas to set a threshold for induction of Caspase 8, and thereby, a threshold for induction of apoptosis (Park, M. Y. et al., Impaired T-cell survival promotes mucosal inflammatory disease in SHIP1-deficient mice. Mucosal Immunol. (2014); 7: 1429-1439). […]

Assay [2] deals with tumor. Description: Adoptive transfer of hematolymphoid cells from 3AC treated long-term survivors, survival after tumor challenge. The format is in vivo, mice. As to conditions: cells from tumor challenged, 3AC treated long-term surviving donor vs naive donor; recipients not treated. The text has this:
To test for continued presence of such immunity, hematolymphoid cells were adoptively transferred from either a nave donor or from a tumor challenged, 3AC treated, long-term surviving (primed) donor into nave C57BL/6 hosts.

Setting [3] is: RMA cells, culture for 12 hours.

With `CC(C)CCC[C@@H](C)[C@H]1CC[C@H]2[C@@H]3CCC4C[C@H](N)CC[C@]4(C)[C@H]3CC[C@]12C` (stereo partly drawn) [Compound 3AC, 3-α-aminocholestane], the “frequency of death receptor CD95/Fas” value in assay [1] (3AC-treated RMA cells) is on record as “increased frequency”. In assay [1] (setting [3]), the “activation of Caspase 8” value was “increased activation of Caspase 8” and the “induction of apoptosis (AnnexinV)” value is on record as “significant induction of apoptosis”. Besides, in assay [2], the “survival of recipients of primed hematolymphoid cells” value is reported as “significantly increased survival”.
